Laboratory results taken from patent publication US11896573B2, “Pharmaceutical compositions and pharmacokinetics of a gamma-hydroxybutyric acid derivative” (priority 2020, dated 2024).

Assay: Multiple ascending dose study, plasma pharmacokinetics of Compound (1) and GHB
Format: in vivo, human
Procedure: The plasma concentrations of Compound (1) and GHB in plasma in healthy human subjects were measured using liquid chromatography tandem mass-spectroscopy and evaluated using PHOENIX™ WINNONLIN® version 8.1 (Pharsight Corporation, USA) and MICROSOFT® EXCEL® (Microsoft Corporation, USA).
All randomized subjects who received Compound (1), with available pharmacokinetic (PK) data and without relevant deviations interfering with the PK evaluations, were included. Subjects who received only placebo were excluded from the PK population. In addition, the PK population was used for the summaries and analyses of all PK data.
A multiple ascending dose study was undertaken to evaluate the pharmacokinetics of multiple doses of Compound (1) in 3 cohorts of healthy subjects (with 8 subjects/cohort). Within each cohort, the subjects were randomized to receive Compound (1) or placebo at a ratio of 6:2 (active: placebo) for 7 days (or up to 9 days if the cohort included a titration period).
After fasting for at least 3 hours following a standard meal, subjects were randomized on Day 1 and the first dose of study drug (either target dose or titration dose) was administered. The first cohort of subjects (Cohort 8) received the second dose administration at approximately four hours after receiving the first dose. The subsequent […] cohorts (Cohorts 9 and 10) received only one dose per day.
For the first cohort (Cohort 8), the dose used was 6.0 g divided into two equal doses four hours apart for 7 days starting from Day 4 “Dose Day 1” to Day 10 “Dose Day 7”. Subsequent Cohorts 9, 10 received a single daily dose of 4.5 g and 6.0 g during the titration period (Day 1 for Cohort 9, Day 1 and Day 2 for Cohort 10, and after a titration period for 7 days starting from Day 4 “Dose Day 1” to Day 10 “Dose Day 7”. Cohort 11 was not conducted due to API availability.

[1] = Cohort 8 (6.0 g/day divided into equal 2 doses), Dosing Day 4
[2] = Cohort 8 (6.0 g/day divided into equal 2 doses), Dosing Day 10
[3] = Cohort 9 (4.5 g/day in a single dose), Dosing Day 4
[4] = Cohort 9 (4.5 g/day in a single dose), Dosing Day 10
[5] = Cohort 10 (6.0 g/day in a single dose), Dosing Day 4

CC(C)[C@H](N)C(=O)OCCCC(=O)O [Compound (1), 4-((L-valyl)oxy)butanoic acid]
Compound (1) CL/F, Max [1]: 597 L/h
Compound (1) CL/F, Mean [1]: 431 L/h
Compound (1) CL/F, Median [1]: 405 L/h
Compound (1) CL/F, Min [1]: 315 L/h
Compound (1) plasma AUC0-inf, Max [1]: 19100 ng·h/mL
Compound (1) plasma AUC0-inf, Min [1]: 10100 ng·h/mL
Compound (1) plasma AUC0-tlast, Max [1]: 19000 ng·h/mL
Compound (1) plasma AUC0-tlast, Min [1]: 10000 ng·h/mL
Compound (1) plasma Cmax, Max [1]: 16700 ng/mL
Compound (1) plasma Cmax, Min [1]: 9600 ng/mL
Compound (1) plasma T1/2, Max [1]: 112 min
Compound (1) plasma T1/2, Min [1]: 13.2 min
Compound (1) plasma Tmax, Max [1]: 270 min
Compound (1) CL/F, Max [2]: 569 L/h
Compound (1) CL/F, Mean [2]: 430 L/h
Compound (1) CL/F, Median [2]: 430 L/h
Compound (1) CL/F, Min [2]: 280 L/h
Compound (1) plasma AUC0-inf, Max [2]: 21500 ng·h/mL
Compound (1) plasma AUC0-inf, Min [2]: 10700 ng·h/mL
Compound (1) plasma AUC0-tlast, Max [2]: 21400 ng·h/mL
Compound (1) plasma AUC0-tlast, Min [2]: 10500 ng·h/mL
Compound (1) plasma Cmax, Max [2]: 17000 ng/mL
Compound (1) plasma Cmax, Min [2]: 8700 ng/mL
Compound (1) plasma T1/2, Max [2]: 31.2 min
Compound (1) plasma T1/2, Min [2]: 14.4 min
Compound (1) plasma Tmax, Max [2]: 285 min
Compound (1) CL/F, Max [3]: 406 L/h
Compound (1) CL/F, Mean [3]: 378 L/h
Compound (1) CL/F, Median [3]: 382 L/h
Compound (1) CL/F, Min [3]: 338 L/h
Compound (1) plasma AUC0-inf, Max [3]: 13300 ng·h/mL
Compound (1) plasma AUC0-inf, Min [3]: 11100 ng·h/mL
Compound (1) plasma AUC0-tlast, Max [3]: 13200 ng·h/mL
Compound (1) plasma AUC0-tlast, Min [3]: 8300 ng·h/mL
Compound (1) plasma Cmax, Max [3]: 17800 ng/mL
Compound (1) plasma Cmax, Min [3]: 10500 ng/mL
Compound (1) plasma T1/2, Max [3]: 40.8 min
Compound (1) plasma T1/2, Min [3]: 16.8 min
Compound (1) CL/F, Max [4]: 488 L/h
Compound (1) CL/F, Mean [4]: 423 L/h
Compound (1) CL/F, Median [4]: 443 L/h
Compound (1) CL/F, Min [4]: 323 L/h
Compound (1) plasma AUC0-inf, Max [4]: 13900 ng·h/mL
Compound (1) plasma AUC0-inf, Min [4]: 9200 ng·h/mL
Compound (1) plasma AUC0-tlast, Max [4]: 13800 ng·h/mL
Compound (1) plasma AUC0-tlast, Min [4]: 9100 ng·h/mL
Compound (1) plasma Cmax, Max [4]: 17800 ng/mL
Compound (1) plasma Cmax, Min [4]: 9300 ng/mL
Compound (1) plasma T1/2, Max [4]: 50.4 min
Compound (1) plasma T1/2, Min [4]: 22.2 min
Compound (1) CL/F, Max [5]: 684 L/h
Compound (1) CL/F, Mean [5]: 390 L/h
Compound (1) CL/F, Median [5]: 316 L/h
Compound (1) CL/F, Min [5]: 265 L/h
Compound (1) plasma AUC0-inf, Max [5]: 22700 ng·h/mL
Compound (1) plasma AUC0-inf, Min [5]: 8800 ng·h/mL
Compound (1) plasma AUC0-tlast, Max [5]: 22600 ng·h/mL
Compound (1) plasma AUC0-tlast, Min [5]: 8700 ng·h/mL
Compound (1) plasma Cmax, Max [5]: 28000 ng/mL
Compound (1) plasma Cmax, Min [5]: 10500 ng/mL
Compound (1) plasma T1/2, Max [5]: 30.6 min
Compound (1) plasma T1/2, Min [5]: 20.4 min
